In article PMC4661537 (2015) one finds KD and binding data, which are given here for 1 compound.

Structures are written as SMILES.

Assay [1] deals with Spi-8R (RNA, aptamer) UAGACGGCAUGGGGAGACGCGACCGAAAUGGUGAAGGACGGGUCCAGUGCUUCGGCACUGUUGAGUAGAGUGUGAGCUCCGUAACUGGUCGCGUCACGUAAGAUGCUCCGGUUAGGGAGACGCGACCGAAAUGGUGAAGGACGGGUCCAGUGCUUCGGCACUGUUGAGUAGAGUGUGAGCUCCGUAACUGGUCGCGUCACUGAUGUACCGUUGAGCAGGGAGACGCGACCGAAAUGGUGAAGGACGGGUCCAGUGCUUCGGCACUGUUGAGUAGAGUGUGAGCUCCGUAACUGGUCGCGUCACUCGCUAGAGCAUGGUUUGGGAGACGCGACCGAAAUGGUGAAGGACGGGUCCAGUGCUUCGGCACUGUUGAGUAGAGUGUGAGCUCCGUAACUGGUCGCGUCACUGGGGCACGCCGUCUGGGGGAGACGCGACCGAAAUGGUGAAGGACGGGUCCAGUGCUUCGGCACUGUUGAGUAGAGUGUGAGCUCCGUAACUGGUCGCGUCACUUACUGCGACCGCAAUAGGGAGACGCGACCGAAAUGGUGAAGGACGGGUCCAGUGCUUCGGCACUGUUGAGUAGAGUGUGAGCUCCGUAACUGGUCGCGUCACGCGCGCAACCGGGUAGAGGGAGACGCGACCGAAAUGGUGAAGGACGGGUCCAGUGCUUCGGCACUGUUGAGUAGAGUGUGAGCUCCGUAACUGGUCGCGUCACGUAACUCACGGCGCUAUGGGAGACGCGACCGAAAUGGUGAAGGACGGGUCCAGUGCUUCGGCACUGUUGAGUAGAGUGUGAGCUCCGUAACUGGUCGCGUC
Briefly: fluorescence association kinetics (koff/kon). Particulars: K+ 125 mM, Mg2+ 5 mM (folding buffer); 40 mM K-HEPES pH 7.5; 10 nM RNA (34.8 nM folded aptamer), DFHBI 200-600 nM; per aptamer; biphasic; per site.

The subject of assay [2] is Spi-tRNA (RNA, aptamer) GCCCGGAUAGCUCAGUCGGUAGAGCAGCGGCCGGACGCAACUGAAUGAAAUGGUGAAGGACGGGUCCAGGUGUGGCUGCUUCGGCAGUGCAGCUUGUUGAGUAGAGUGUGAGCUCCGUAACUAGUCGCGUCCGGCCGCGGGUCCAGGGUUCAAGUCCCUGUUCGGGCGCCA
As to the kind of experiment: fluorescence activation. The settings on record: K+ 125 mM, Mg2+ 5 mM (folding buffer); fluorescence slightly higher than single Spinach.

Assay [3] deals with Spi (single Spinach aptamer, 24-2) (RNA, aptamer) GACGCAACUGAAUGAAAUGGUGAAGGACGGGUCCAGGUGUGGCUGCUUCGGCAGUGCAGCUUGUUGAGUAGAGUGUGAGCUCCGUAACUAGUCGCGUC
Briefly: fluorescence association kinetics (koff/kon). The settings on record: K+ 125 mM, Mg2+ 5 mM (folding buffer); 40 mM K-HEPES pH 7.5; 40 nM aptamer, DFHBI 200-600 nM; mean over concentrations; biphasic; per site.

Consider `CC1=N/C(=C\c2cc(F)c(O)c(F)c2)C(=O)N1C`, for which the dissociation constant (KD) is 246 ± 67 nM in assay [1] and 303 ± 22 nM in assay [3]. In assay [2], the binding entry is recorded as “yes”.

Broadly, the KD is the equilibrium constant for the complex coming apart. High values mean weaker binding, low ones tighter binding.
